biological target: T1, human DGAT1 (Homo sapiens, UniProt O75907); experiment: Human enzyme assay, further developed assay (14C oleoyl CoA, 96 well plate); format: biochemical; conditions: human DGAT1 expressed in insect cell (sf9) membranes
T1 construct: made in house; host or cells: Sf9 insect cells (recombinant baculovirus); membrane fraction
T1 sequence (O75907 1-488): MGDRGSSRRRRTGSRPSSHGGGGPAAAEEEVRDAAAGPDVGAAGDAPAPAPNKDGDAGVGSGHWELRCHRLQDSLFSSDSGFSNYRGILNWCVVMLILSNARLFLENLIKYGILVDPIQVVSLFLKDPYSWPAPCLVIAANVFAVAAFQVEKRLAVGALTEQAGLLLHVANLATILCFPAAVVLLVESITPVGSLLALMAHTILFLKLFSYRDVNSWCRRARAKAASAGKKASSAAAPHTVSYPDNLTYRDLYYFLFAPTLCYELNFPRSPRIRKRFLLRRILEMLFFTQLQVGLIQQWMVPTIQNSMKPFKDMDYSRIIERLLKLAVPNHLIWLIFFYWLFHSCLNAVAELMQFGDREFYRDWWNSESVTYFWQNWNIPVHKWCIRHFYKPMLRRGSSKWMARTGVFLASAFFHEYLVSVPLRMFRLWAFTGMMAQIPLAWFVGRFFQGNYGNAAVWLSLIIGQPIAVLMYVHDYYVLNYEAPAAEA
Method: The in vitro assay to identify DGAT1 inhibitors uses human DGAT1 expressed in insect cell membranes as the enzyme source (Proc. Natl. Acad. Sci. 1998, 95, 13018-13023). Briefly, sf9 cells were infected with recombinant baculovirus containing human DGAT1 coding sequences and harvested after 48 h. Cells were lysed by sonication and membranes isolated by centrifuging at 28000 rpm for 1 h at 4° C. on a 41% sucrose gradient. The membrane fraction at the interphase was collected, washed, and stored in liquid nitrogen.
In a further developed assay, DGAT1 activity was assayed by a modification of the method described by Coleman (Methods in Enzymology 1992, 209, 98-102). Compound at 0.00003-10 μM (final cone) was incubated with 25 μg/ml (final cone) membrane protein, 5 mM MgCl2, and 100 μM 1,2 dioleoyl-sn-glycerol in a total assay volume of 200 μl in a 96 well plate. The reaction was started by adding ^14C oleoyl coenzyme A (30 μM final concentration) and incubated at room temperature for 30 minutes. The reaction was stopped by adding 300 μl 2-propanol:heptane 7:1. Radioactive triolein product was separated into the organic phase by adding 200 μl heptane and 200 μl 0.1 M carbonate buffer pH 9.5. DGAT1 activity was quantified by counting aliquots of the upper heptane layer by liquid scintillography.

SMILES	IC50
O=C(Nc1ccc(O[C@@H]2CC[C@@H](C(=O)O)C2)nc1)c1nnc(Nc2ccc(F)c(F)c2)o1 [Example 49, (1R,3R)-3-(5-(5-(3,4-Difluorophenylamino)-1,3,4-oxadiazole-2-carboxamido)pyridin-2-yloxy)cyclopentanecarboxylic acid]	18 nM
O=C(Nc1ccc(O[C@H]2CC[C@@H](C(=O)O)CC2)nc1F)c1nnc(Nc2ccc(F)c(F)c2)o1 [Example 50, (1s,4s)-4-(5-(5-(3,4-Difluorophenylamino)-1,3,4-oxadiazole-2-carboxamido)-6-fluoropyridin-2-yloxy)cyclohexanecarboxylic acid]	3.4 nM
COc1nc(O[C@H]2CC[C@@H](C(=O)O)CC2)ccc1NC(=O)c1nnc(Nc2ccc(F)c(F)c2)o1 [Example 51, (1s,4s)-4-(5-(5-(3,4-Difluorophenylamino)-1,3,4-oxadiazole-2-carboxamido)-6-methoxypyridin-2-yloxy)cyclohexanecarboxylic acid]	29 nM
COc1nc(O[C@H]2CC[C@@H](C(=O)O)CC2)ccc1NC(=O)c1nnc(Nc2ccc(F)c(Cl)c2)o1 [Example 52, (1s,4s)-4-(5-(5-(3-Chloro-4-fluorophenylamino)-1,3,4-oxadiazole-2-carboxamido)-6-methoxypyridin-2-yloxy)cyclohexanecarboxylic acid]	23 nM
O=C(O)C[C@H]1CC[C@@H](Oc2ccc(NC(=O)c3nnc(Nc4ccc(F)c(Cl)c4)o3)cn2)CC1 [Example 53, 2-((1s,4s)-4-(5-(5-(3-Chloro-4-fluorophenylamino)-1,3,4-oxadiazole-2-carboxamido)pyridin-2-yloxy)cyclohexyl)acetic acid]	3.1 nM
O=C(O)C[C@H]1CC[C@@H](Oc2ccc(NC(=O)c3nnc(Nc4ccc(Cl)cc4Cl)o3)cn2)CC1 [Example 54, 2-((1s,4s)-4-(5-(5-(2,4-Dichlorophenylamino)-1,3,4-oxadiazole-2-carboxamido)pyridin-2-yloxy)cyclohexyl)acetic acid]	8.3 nM
O=C(Nc1ccc(O[C@H]2CC[C@@H](C(=O)O)CC2)nc1F)c1nnc(Nc2ccc(F)c(Cl)c2)o1 [Example 55, (1s,4s)-4-(5-(5-(3-Chloro-4-fluorophenylamino)-1,3,4-oxadiazole-2-carboxamido)-6-fluoropyridin-2-yloxy)cyclohexanecarboxylic acid]	2.1 nM
COc1cc(NC(=O)c2nnc(Nc3ccc(F)c(Cl)c3)o2)cnc1O[C@H]1CC[C@@H](C(=O)O)CC1 [Example 56, (1s,4s)-4-(5-(5-(3-Chloro-4-fluorophenylamino)-1,3,4-oxadiazole-2-carboxamido)-3-methoxypyridin-2-yloxy)cyclohexanecarboxylic acid]	150 nM
COc1cc(NC(=O)c2nnc(Nc3ccc(F)c(F)c3)o2)cnc1O[C@H]1CC[C@@H](C(=O)O)CC1 [Example 57, (1s,4s)-4-(5-(5-(3,4-Difluorophenylamino)-1,3,4-oxadiazole-2-carboxamido)-3-methoxypyridin-2-yloxy)cyclohexanecarboxylic acid]	410 nM

Results, then the compound that gave them:

IC50	SMILES
6.1 nM	O=C(Nc1cnc(O[C@H]2CC[C@@H](C(=O)O)CC2)cc1F)c1nnc(Nc2cc(F)c(F)cc2F)o1 [Example 58, (1s,4s)-4-(4-Fluoro-5-(5-(2,4,5-trifluorophenylamino)-1,3,4-oxadiazole-2-carboxamido)pyridin-2-yloxy)cyclohexanecarboxylic acid]
8.6 nM	O=C(Nc1cnc(O[C@H]2CC[C@@H](C(=O)O)CC2)cc1F)c1nnc(Nc2ccc(F)c(F)c2)o1 [Example 59, (1s,4s)-4-(5-(5-(3,4-Difluorophenylamino)-1,3,4-oxadiazole-2-carboxamido)-4-fluoropyridin-2-yloxy)cyclohexanecarboxylic acid]
14 nM	O=C(Nc1cnc(O[C@H]2CC[C@@H](C(=O)O)CC2)c(F)c1)c1nnc(Nc2ccc(F)c(F)c2)o1 [Example 60, (1s,4s)-4-(5-(5-(3,4-Difluorophenylamino)-1,3,4-oxadiazole-2-carboxamido)-3-fluoropyridin-2-yloxy)cyclohexanecarboxylic acid]
19 nM	O=C(Nc1cnc(O[C@H]2CC[C@@H](C(=O)O)CC2)c(F)c1)c1nnc(Nc2ccc(F)c(Cl)c2)o1 [Example 61, (1s,4s)-4-(5-(5-(3-Chloro-4-fluorophenylamino)-1,3,4-oxadiazole-2-carboxamido)-3-fluoropyridin-2-yloxy)cyclohexanecarboxylic acid]
58 nM	Cc1nc(O[C@H]2CC[C@@H](C(=O)O)CC2)ccc1NC(=O)c1nnc(Nc2ccc(F)c(F)c2)o1 [Example 62, (1s,4s)-4-(5-(5-(3,4-Difluorophenylamino)-1,3,4-oxadiazole-2-carboxamido)-6-methylpyridin-2-yloxy)cyclohexanecarboxylic acid]
30 nM	CC(C)c1ccc(Nc2nnc(C(=O)Nc3ccc(O[C@H]4C[C@@H](C(=O)O)C4)nc3)o2)cc1 [Example 63]
1.9 nM	CC(C)c1ccc(Nc2nnc(C(=O)Nc3ccc(O[C@H]4C[C@H](C(=O)O)C4)nc3)o2)cc1 [Example 64]
26 nM	O=C(Nc1ccc(O[C@H]2C[C@@H](C(=O)O)C2)nc1)c1nnc(Nc2ccc(F)c(F)c2)o1 [Example 65, cis-3-(5-(5-(3,4-difluorophenylamino)-1,3,4-oxadiazole-2-carboxamido)pyridin-2-yloxy)cyclobutanecarboxylic acid]
2.1 nM	O=C(Nc1ccc(O[C@H]2C[C@H](C(=O)O)C2)nc1)c1nnc(Nc2ccc(F)c(F)c2)o1 [Example 66, trans-3-(5-(5-(3,4-difluorophenylamino)-1,3,4-oxadiazole-2-carboxamido)pyridin-2-yloxy)cyclobutanecarboxylic acid]
7.2 nM	CC1(C(=O)O)CCC(Oc2ccc(NC(=O)c3nnc(Nc4ccc(Cl)cc4Cl)o3)cn2)CC1 (stereo not shown) [Example 67, 4-(5-((5-((2,4-dichlorophenyl)amino)-1,3,4-oxadiazole-2-carbonyl)amino)pyridin-2-yl)oxy-1-methylcyclohexane-1-carboxylic acid]
8.3 nM	C[C@]1(C(=O)O)CC[C@@H](Oc2ccc(NC(=O)c3nnc(Nc4ccc(F)c(F)c4)o3)cn2)CC1 [Example 68, (1s,4s)-4-(5-(5-(3,4-Difluorophenylamino)-1,3,4-oxadiazole-2-carboxamido)pyridin-2-yloxy)-1-methylcyclohexanecarboxylic acid]
4.1 nM	O=C(Nc1ccc(O[C@H]2CC[C@@H](C(=O)O)CC2)nc1F)c1nnc(Nc2cc(F)c(F)cc2F)o1 [Example 70, (1s,4s)-4-(6-Fluoro-5-(5-(2,4,5-trifluorophenylamino)-1,3,4-oxadiazole-2-carboxamido)pyridin-2-yloxy)cyclohexanecarboxylic acid]
34 nM	COc1cc(Cl)ccc1Nc1nnc(C(=O)Nc2ccc(O[C@H]3CC[C@@H](C(=O)O)CC3)nc2)o1 [Example 71, (1s,4s)-4-(5-(5-(4-Chloro-2-methoxyphenylamino)-1,3,4-oxadiazole-2-carboxamido)pyridin-2-yloxy)cyclohexanecarboxylic acid]
